Laboratory results taken from patent publication US4883661A, “Use of arginine as an lymphokine synergist” (priority 1987, dated 1989).

Columns and labels:
[1] = given prior to or concomitantly with amino acids, glycine or ammonia; rats; cited from earlier work
[2] = test system: peripheral blood lymphocyte; conditions: daily oral supplements (30 g), cited from earlier work
[3] = 30 g daily in divided doses for 1 week, human; cited from earlier work
[4] = 1% in drinking water 6 days after the injury; cited from earlier work
[5] = intraperitoneal, after 24 hour starvation, rats; cited from earlier work
[6] = dietary arginine, young growing rat; cited from earlier work
YAC targets = assay: Basal and Poly I:C-induced natural killer (NK) activity, 4 hour chromium release, mice on dietary supplement; format: in vivo, CBA/J mice; conditions: for NK(Induced) activity (% toxicity): Poly I:C-induced, * p,0.05 (ARG); for NK(Induced) activity (% toxicity) / NK(basal) activity (% toxicity): 1% dietary supplementation at least 10 days, YAC targets, 4 hour chromium release
Description: (§1) The effect of arginine on IL-2 dependent responses is shown by the following example. The effect of arginine on two IL-2 - dependent responses (T cell activation and cytotoxic T lymphocyte (CTL) development)and on interferon-influenced natural killer (NK) cell activity was evaluated.
(§2) CBA/J mice (n=100) received 1% arginine (ARG) dietary supplementation o isonitrogenous glycine (GLY) for al least 10 days. CTL development was determined by sensitizing mice to BALB/C spleen cell alloantigen in vivo (×3 immunizations) and measuring cytotoxicity against allolymphoblasts as targets. Basal and Poly I:C - induced NK activity was measured against YAC targets. Using indirect immunofluorescence, IL-2 receptor expression (M7/20) on purified splenic T cells was determined 24 and 48 hours after con A activation. Results are presented in Table 1 wherein data are expressed as % toxicity in a 4 hour Chromium release assay (CTL and NK cells only) and % expression (IL-2). (*p,0.05 Student's T test)

[7] = dietary supplement before and/or after wounding, rats; cited from earlier work
lymphocytes = conditions: in vitro incubation in media with higher amounts of arginine; cited from earlier work
allolymphoblasts = assay: Cytotoxic T lymphocyte (CTL) development, 4 hour chromium release, mice on dietary supplement; format: in vivo, CBA/J mice; conditions: for CTL cytotoxicity (% toxicity): 1% dietary supplementation at least 10 days, 4 hour chromium release assay, * p,0.05 Student's t test (ARG)
Description: as §1, §2

IL-2 receptor = IL-2 receptor expression (M7/20) on purified splenic T cells after con A activation, indirect immunofluorescence; format: in vivo, CBA/J mice; conditions: for IL 2 (24 hr) receptor expression (% expression): 24 hours after con A activation; for IL 2 (24 hr) receptor expression (% expression) / IL 2 (48 hr) receptor expression (% expression): * p,0.05 (ARG); for IL 2 (48 hr) receptor expression (% expression): 48 hours after con A activation
Description: as §1, §2

C3HBA tumors = conditions: supplemented after tumor excision, cited from earlier work
C1300 neuroblastoma [8] = assay: Mixed lymphocyte tumor cell culture (MLTC), C1300 tumor bearing protein malnourished mice; format: in vivo, A/J mice; conditions: for MLTC Stimulation Index (d21): day 21
Description: (§3) The effects of supplemental arginine (ARG) in the malnourished tumor bearing host were evaluated. […] Body weight, tumor weight and carcass weight were measured weekly and duration of survival was recorded. On day 10, specific T cell cytotoxicity was measured; concanavalin A (con A) stimulation of thymocytes and mixed lymphocyte tumor cell culture (MLTC) were measured on days 14 (d14) and 21(d21) (n=5/group).

C1300 neuroblastoma [9] = assay: Tumor growth and survival, C1300 neuroblastoma in protein malnourished mice; format: in vivo, A/J mice; conditions: for median survival: ARG p<0.001 compared with GLY and LPD (LPD, 29 days)
Description: as §3

[10] = humans, mainly liver disease; cited from earlier work
[11] = test system: breast adenocarcinoma (C3HBA); conditions: rats; cited from earlier work
[12] = Body weight and carcass weight, C1300 tumor bearing protein malnourished mice; format: in vivo, A/J mice; conditions: for total body weight and mean carcass weight: compared with LPD mice
Description: as §3

thymus = conditions: cited from earlier work
C1300 neuroblastoma [13] = conditions: mouse, in vivo
Description: Body weight, tumor weight and carcass weight were measured weekly and duration of survival was recorded. On day 10, specific T cell cytotoxicity was measured; concanavalin A (con A) stimulation of thymocytes and mixed lymphocyte tumor cell culture (MLTC) were measured on days 14 (d14) and 21(d21) (n=5/group).

thymocytes = assay: Concanavalin A stimulation of thymocytes, C1300 tumor bearing protein malnourished mice; format: in vivo, A/J mice; conditions: mean ± SD, * p<0.001, low protein diet + 1% supplement
Description: as §3

[14] = mean ± SD, low protein diet + 1% supplement

NC(=O)NCCC[C@H](N)C(=O)O [citrulline, reference compound]
protection against toxic effects of hyperammonemia [1]: share the "detoxifying" effects of arginine

Cl.N=C(N)NCCC[C@H](N)C(=O)O [arginine HCl]
peripheral blood lymphocyte blastogenesis ([2]; healthy volunteers): increased
time until blastogenesis effect is evident [2]: ≤ 3 days
untoward effects [3]: no untoward effects except for mild gastrointestinal discomfort
recovery [4]: 100%
weight loss after injury [4]: reversed the weight loss
LD50 [5]: 3800 mg/kg

N=C(N)NCCC[C@H](N)C(=O)O [ARG, arginine]
protection against toxic effects of hyperammonemia [1]: abrogated
growth [6]: more rapid growth
NK(Induced) activity (% toxicity) (YAC targets): 43 ± 12%
NK(basal) activity (% toxicity) (YAC targets): 19 ± 5%
inducible NK activity, in words (YAC targets; supplemental arginine): significantly augmented
wound healing [7]: accelerated
blastogenic responses in vitro (lymphocytes): does not lead to greater blastogenic responses
CTL cytotoxicity (% toxicity) (allolymphoblasts): 69 ± 15%
CTL activity, in words (allolymphoblasts; supplemental arginine): significantly augmented
IL 2 (24 hr) receptor expression (% expression) (IL-2 receptor): 52 ± 4%
IL 2 (48 hr) receptor expression (% expression) (IL-2 receptor): 59 ± 6%
IL-2 receptor kinetics, in words (IL-2 receptor; supplemental arginine): enhanced
survival time of mice which subsequently developed tumors (C3HBA tumors): prolonged survival time
tumor recurrence rate (C3HBA tumors; without supplement 100% recurrence): 30%
MLTC Stimulation Index (d21) (C1300 neuroblastoma [8]; [14]): 2.2 ± 1.3
immune responses in tumor bearing protein malnourished mice (C1300 neuroblastoma [8]; supplemental ARG): augmented immune responses
median survival (C1300 neuroblastoma [9]): 38 days
median survival, in words (C1300 neuroblastoma [9]; p<0.001 compared with GLY and LPD mice): prolonged
tumor growth (C1300 neuroblastoma [9]; p<0.05, compared with GLY and LPD mice): retarded tumor growth
therapeutic effect, elevated blood ammonia [10]: ranged from excellent to minimal
tumor appearance [11]: slowed tumor appearance
tumor incidence [11]: reducing tumor incidence
total body weight and mean carcass weight [12]: significantly preserved
host nutritional status ([12]; supplemental ARG): preserved
lymphocyte content of the thymic glands (thymus; in vivo): significant increases
thymic involution with injury (thymus; injured): minimizes the thymic involution
blastogenesis of the lymphocytes in response to mitogens (thymus; thymic): significant enhancement
thymic weight (thymus; uninjured rats and mice): increases thymic weight

NCC(=O)O [GLY, glycine, reference compound]
Cytotoxicity (C1300 neuroblastoma [13]): 15 ± 1.4%
NK(Induced) activity (% toxicity) (YAC targets): 24 ± 14%
NK(basal) activity (% toxicity) (YAC targets): 13 ± 4%
CTL cytotoxicity (% toxicity) (allolymphoblasts): 54 ± 14%
IL 2 (24 hr) receptor expression (% expression) (IL-2 receptor): 30 ± 4%
IL 2 (48 hr) receptor expression (% expression) (IL-2 receptor): 46 ± 45%
ConA Stimulation Index (d21) (thymocytes; day 21): 24.9 ± 5
ConA Stimulation Index (thymocytes; first ConA column (d14 per text)): 38.4 ± 7
MLTC Stimulation Index (d14) (C1300 neuroblastoma [8]; day 14, mean ± SD, * p<0.001, low protein diet + 1% supplement): 3.3 ± 0.9
MLTC Stimulation Index (d21) (C1300 neuroblastoma [8]; [14]): 2.5 ± 0.8
median survival (C1300 neuroblastoma [9]): 30 days
total body weight and mean carcass weight [12]: significantly preserved
